The structures appear in SMILES notation. The source made the active and inactive calls. The rule behind the calls is not given here.

Assay [1] addresses T1, Toll-like receptor 4 (Mus musculus) (UniProt Q9QUK6).
T1 sequence (whole entry): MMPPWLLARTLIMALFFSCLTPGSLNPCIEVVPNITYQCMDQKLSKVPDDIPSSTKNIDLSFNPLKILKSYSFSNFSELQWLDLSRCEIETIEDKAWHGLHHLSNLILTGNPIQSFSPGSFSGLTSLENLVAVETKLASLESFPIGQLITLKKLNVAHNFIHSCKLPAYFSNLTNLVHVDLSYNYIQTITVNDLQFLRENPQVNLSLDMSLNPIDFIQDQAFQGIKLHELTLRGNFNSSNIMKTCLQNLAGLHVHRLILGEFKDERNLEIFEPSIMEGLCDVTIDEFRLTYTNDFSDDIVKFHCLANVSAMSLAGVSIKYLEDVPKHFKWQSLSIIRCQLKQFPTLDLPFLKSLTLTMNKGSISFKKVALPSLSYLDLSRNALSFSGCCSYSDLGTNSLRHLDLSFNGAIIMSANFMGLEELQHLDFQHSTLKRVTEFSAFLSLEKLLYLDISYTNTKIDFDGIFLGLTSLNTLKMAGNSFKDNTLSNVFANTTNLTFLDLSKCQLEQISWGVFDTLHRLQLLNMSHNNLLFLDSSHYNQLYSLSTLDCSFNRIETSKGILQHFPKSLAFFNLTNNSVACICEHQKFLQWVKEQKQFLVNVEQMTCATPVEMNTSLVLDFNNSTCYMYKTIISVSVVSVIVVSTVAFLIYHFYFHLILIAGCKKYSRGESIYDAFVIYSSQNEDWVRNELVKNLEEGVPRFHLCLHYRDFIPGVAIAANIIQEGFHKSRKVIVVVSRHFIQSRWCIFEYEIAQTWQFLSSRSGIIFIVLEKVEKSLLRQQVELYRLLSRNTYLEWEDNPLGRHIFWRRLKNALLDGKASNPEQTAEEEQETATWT
Description: Inhibition of LPS binding to TLR4 in IFNgamma-stimulated mouse RAW264.7 cells assessed as effect on ratio of phosphorylated ERK to total ERK at 100 uM measured after 15 mins by Western blot analysis relative to beta-actin (reference value: 0.8). Format: cell-based. Background: Immunoblotting shows a protein as a band on a membrane.

The target of assay [2] is T2, Nuclear factor erythroid 2-related factor 2 (Mus musculus) (UniProt Q60795).
T2 sequence (whole entry): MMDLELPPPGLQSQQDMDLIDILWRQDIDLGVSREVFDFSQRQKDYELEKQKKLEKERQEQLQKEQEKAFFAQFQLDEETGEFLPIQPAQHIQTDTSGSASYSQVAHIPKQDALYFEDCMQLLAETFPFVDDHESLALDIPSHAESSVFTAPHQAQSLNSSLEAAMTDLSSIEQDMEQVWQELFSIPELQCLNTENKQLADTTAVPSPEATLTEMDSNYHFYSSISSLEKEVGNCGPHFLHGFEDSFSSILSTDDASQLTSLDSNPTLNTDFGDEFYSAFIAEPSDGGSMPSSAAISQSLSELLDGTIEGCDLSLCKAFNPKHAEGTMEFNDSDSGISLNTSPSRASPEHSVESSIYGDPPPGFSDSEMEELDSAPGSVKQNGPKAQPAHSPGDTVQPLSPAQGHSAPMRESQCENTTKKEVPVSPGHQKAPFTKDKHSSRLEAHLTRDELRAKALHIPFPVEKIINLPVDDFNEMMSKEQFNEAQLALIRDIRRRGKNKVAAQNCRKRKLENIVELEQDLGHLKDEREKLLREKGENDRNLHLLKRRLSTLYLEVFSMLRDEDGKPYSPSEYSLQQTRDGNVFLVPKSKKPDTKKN
Description: Induction of NRF2-ARE mediated HO-1 expression in mouse RAW264.7 cells at 100 uM after 2 hrs by Western blot analysis. Format: cell-based.

Take `C=C(C)[C@@H]1CC[C@]2(C)[C@H](CC=C3[C@@H]4CC(C)(C)CC[C@]4(C)CC[C@]32C(=O)O)[C@@]1(C)CCC(=O)O`: in assay [1], the fold change (FC) came out at 0.8. The outcome in assay [2] was inactive.

Values taken from ChEMBL document CHEMBL4261619, “Sentulic acid isolated from Sandoricum koetjape Merr attenuates lipopolysaccharide and interferon gamma co-stimulated nitric oxide production in murine macrophage RAW264 cells” (Bioorg Med Chem Lett, 2018).
